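Growth conditions: 96-well plates. Treatment: test compound, 48 hours, 5 concentrations. Analysis: linear interpolation between bracketing concentrations; unreached endpoints set to highest concentration. TGI: total growth inhibition.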
Key:
Test in all cases: NCI anticancer screen, dose series, 48 h
[1] = test system: 786-0 renal
[2] = test system: A498 renal
[3] = test system: A549 NSCLC
[4] = test system: ACHN renal
[5] = test system: CAKI-1 renal
[6] = test system: CCRF-CEM leukemia
[7] = test system: COLO 205 colon
[8] = test system: DLD-1 colon
[9] = test system: DMS 114 small cell lung
[10] = test system: EKVX NSCLC
[11] = test system: HCC-2998 colon
[12] = test system: HCT-116 colon
[13] = test system: HCT-15 colon
[14] = test system: HL-60(TB) leukemia
[15] = test system: HOP-62 NSCLC
[16] = test system: HOP-92 NSCLC
[17] = test system: IGROV1 ovarian
[18] = test system: K-562 leukemia
[19] = test system: KM20L2 colon
[20] = test system: LOX IMVI melanoma
[21] = test system: LXFL 529 NSCLC
[22] = test system: M14 melanoma
[23] = test system: M19-MEL melanoma
[24] = test system: MALME-3M melanoma
[25] = test system: MOLT-4 leukemia
[26] = test system: NCI-H226 lung
[27] = test system: NCI-H23 lung
[28] = test system: NCI-H460 lung
[29] = test system: NCI-H522 lung
[30] = test system: OVCAR-4 ovarian
[31] = test system: OVCAR-5 ovarian
[32] = test system: OVCAR-8 ovarian
[33] = test system: RPMI-8226 leukemia
[34] = test system: RXF 393 renal
[35] = test system: SF-268 CNS
[36] = test system: SF-539 CNS
[37] = test system: SK-MEL-2 melanoma
[38] = test system: SK-MEL-28 melanoma
[39] = test system: SK-MEL-5 melanoma
[40] = test system: SK-OV-3 ovarian
[41] = test system: SN12C renal
[42] = test system: SNB-19 CNS
[43] = test system: SNB-75 CNS
[44] = test system: SNB-78 CNS
[45] = test system: SW-620 colon
[46] = test system: TK-10 renal
[47] = test system: U251 CNS
[48] = test system: UACC-62 melanoma
[49] = test system: UO-31 renal
[50] = test system: XF 498 CNS
[51] = test system: BT-549 breast
[52] = test system: DU-145 prostate
[53] = test system: HS 578T breast
[54] = test system: HT29 colon
[55] = test system: KM12 colon
[56] = test system: MCF7 breast
[57] = test system: MDA-MB-231 breast
[58] = test system: MDA-MB-435
[59] = test system: MDA-N
[60] = test system: NCI/ADR-RES ovarian
[61] = test system: OVCAR-3 ovarian
[62] = test system: PC-3 prostate
[63] = test system: SF-295 CNS
[64] = test system: SR leukemia
[65] = test system: T-47D breast
[66] = test system: UACC-257 melanoma

With CC(=O)OC1(C#N)CC2OC1C1C2N1C(=O)OC(C)(C)C (centres undefined) the TGI [1] was greater than 100 µM, the TGI [2] was greater than 100 µM and the TGI [3] was greater than 100 µM. The TGI [4] was greater than 100 µM, the TGI [5] was greater than 100 µM and the TGI [6] was greater than 100 µM. For the same compound, the TGI [7] was greater than 100 µM, the TGI [8] was greater than 100 µM and the TGI [9] was greater than 100 µM. For the same compound, the TGI [10] was greater than 100 µM, the TGI [11] was greater than 100 µM and the TGI [12] was greater than 100 µM. The TGI [13] was greater than 100 µM, the TGI [14] was greater than 100 µM and the TGI [15] was greater than 100 µM. For the same compound, the TGI [16] was greater than 100 µM, the TGI [17] was greater than 100 µM and the TGI [18] was greater than 100 µM. For the same compound, the TGI [19] was greater than 100 µM, the TGI [20] was greater than 100 µM and the TGI [21] was greater than 100 µM. The TGI [22] was greater than 100 µM, the TGI [23] was greater than 100 µM and the TGI [24] was greater than 100 µM. It also gave a TGI [25] greater than 100 µM, a TGI [26] greater than 100 µM and a TGI [27] greater than 100 µM. For the same compound, the TGI [28] was greater than 100 µM, the TGI [29] was greater than 100 µM and the TGI [30] was greater than 100 µM. The TGI [31] was greater than 100 µM, the TGI [32] was greater than 100 µM and the TGI [33] was greater than 100 µM. The TGI [34] was greater than 100 µM, the TGI [35] was greater than 100 µM and the TGI [36] was greater than 100 µM. It also gave a TGI [37] greater than 100 µM, a TGI [38] greater than 100 µM and a TGI [39] greater than 100 µM. For the same compound, the TGI [40] was greater than 100 µM, the TGI [41] was greater than 100 µM and the TGI [42] was greater than 100 µM. The TGI [43] was greater than 100 µM, the TGI [44] was greater than 100 µM and the TGI [45] was greater than 100 µM. For the same compound, the TGI [46] was greater than 100 µM, the TGI [47] was greater than 100 µM and the TGI [48] was greater than 100 µM. It also gave a TGI [49] greater than 100 µM and a TGI [50] greater than 100 µM.

CC(=O)O[C@H]1CC[C@H]2[C@@H]3CCC4=C(C(=O)C=CC4(C)OC(C)=O)[C@H]3CC[C@]12C (some centres undefined) gave a TGI [1] greater than 100 µM, a TGI [2] greater than 100 µM and a TGI [3] greater than 100 µM. The TGI [4] was greater than 100 µM, the TGI [51] was greater than 100 µM and the TGI [5] was greater than 100 µM. The TGI [6] was greater than 100 µM, the TGI [52] was greater than 100 µM and the TGI [10] was greater than 100 µM. It also gave a TGI [11] greater than 100 µM, a TGI [12] greater than 100 µM and a TGI [13] greater than 100 µM. The TGI [14] was 97.1 µM, the TGI [15] was greater than 100 µM and the TGI [16] was greater than 100 µM. For the same compound, the TGI [53] was greater than 100 µM, the TGI [54] was greater than 100 µM and the TGI [17] was greater than 100 µM. For the same compound, the TGI [18] was greater than 100 µM, the TGI [55] was greater than 100 µM and the TGI [20] was greater than 100 µM. For the same compound, the TGI [22] was greater than 100 µM, the TGI [24] was greater than 100 µM and the TGI [56] was 73.1 µM. For the same compound, the TGI [57] was greater than 100 µM, the TGI [58] was greater than 100 µM and the TGI [59] was greater than 100 µM. For the same compound, the TGI [25] was greater than 100 µM, the TGI [26] was greater than 100 µM and the TGI [27] was greater than 100 µM. It also gave a TGI [28] greater than 100 µM, a TGI [29] greater than 100 µM and a TGI [60] greater than 100 µM. The TGI [61] was greater than 100 µM, the TGI [30] was greater than 100 µM and the TGI [31] was greater than 100 µM. For the same compound, the TGI [32] was greater than 100 µM, the TGI [62] was greater than 100 µM and the TGI [33] was greater than 100 µM. It also gave a TGI [34] of 92.1 µM, a TGI [35] greater than 100 µM and a TGI [63] greater than 100 µM. For the same compound, the TGI [36] was greater than 100 µM, the TGI [38] was greater than 100 µM and the TGI [39] was greater than 100 µM. For the same compound, the TGI [41] was greater than 100 µM, the TGI [42] was greater than 100 µM and the TGI [43] was greater than 100 µM. For the same compound, the TGI [64] was greater than 100 µM, the TGI [45] was greater than 100 µM and the TGI [65] was greater than 100 µM. It also gave a TGI [46] greater than 100 µM, a TGI [47] greater than 100 µM and a TGI [66] greater than 100 µM. The TGI [48] was 74.5 µM and the TGI [49] was greater than 100 µM.

With CC(=O)Nc1ccc(S(=O)(=O)[N-]C2C(=O)c3ccccc3C(=O)C2[n+]2ccccc2)cc1 (centres undefined) the TGI [1] was greater than 100 µM, the TGI [3] was 39.7 µM and the TGI [4] was 30.7 µM. For the same compound, the TGI [51] was 13.4 µM, the TGI [5] was greater than 100 µM and the TGI [6] was 40.5 µM. The TGI [7] was greater than 100 µM, the TGI [52] was greater than 100 µM and the TGI [10] was greater than 100 µM. For the same compound, the TGI [11] was 43.6 µM, the TGI [12] was greater than 100 µM and the TGI [13] was greater than 100 µM. It also gave a TGI [14] of 40.5 µM, a TGI [15] of 35.3 µM and a TGI [16] of 33.6 µM. The TGI [53] was 62.4 µM, the TGI [54] was greater than 100 µM and the TGI [17] was 30 µM. For the same compound, the TGI [18] was greater than 100 µM, the TGI [55] was 27.9 µM and the TGI [20] was greater than 100 µM. The TGI [22] was 27.4 µM, the TGI [24] was 25.1 µM and the TGI [56] was 31.8 µM. For the same compound, the TGI [57] was greater than 100 µM, the TGI [58] was 14.9 µM and the TGI [59] was 33 µM. For the same compound, the TGI [25] was 47.2 µM, the TGI [26] was greater than 100 µM and the TGI [27] was 21.5 µM. For the same compound, the TGI [28] was 86.3 µM, the TGI [29] was 92.7 µM and the TGI [60] was 38.8 µM. The TGI [61] was 32.3 µM, the TGI [30] was 28.9 µM and the TGI [31] was 32.3 µM. It also gave a TGI [32] of 38.3 µM, a TGI [62] of 46.1 µM and a TGI [33] greater than 100 µM. For the same compound, the TGI [34] was 30.4 µM, the TGI [35] was 35.5 µM and the TGI [63] was 28.8 µM. For the same compound, the TGI [36] was 33.3 µM, the TGI [37] was 25.3 µM and the TGI [38] was 30.1 µM. For the same compound, the TGI [39] was 15.3 µM, the TGI [40] was greater than 100 µM and the TGI [41] was greater than 100 µM. It also gave a TGI [42] of 27.3 µM, a TGI [43] of 30.1 µM and a TGI [64] of 42.1 µM. For the same compound, the TGI [45] was 32.9 µM, the TGI [65] was greater than 100 µM and the TGI [46] was greater than 100 µM. The TGI [47] was 27.3 µM, the TGI [66] was 29.5 µM and the TGI [48] was 28.9 µM. It also gave a TGI [49] of 21.2 µM.

From PubChem BioAssay (NCI)
